For 17 compounds, TGI results are on record in PubChem BioAssay (NCI).

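Test compounds were applied to cells in 96-well plates for 48 hours at 5 doses. At the TGI there is no net growth.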 Where a SMILES comes first, the peptide text is derived from it. [ ]: non-standard residue; d: D form. The star is where a group is joined. β3hI = CC[CH](C)[CH](N)CC(=O)O; Octanoyl = CCCCCCCC(=O)*; Aib = CC(C)(N)C(=O)O; tBu = CC(C)(C)*

Assay in all cases: NCI-60 cell line screen, 48 h
In experiment [1] the test system is TK-10 renal.
In experiment [2] the test system is HCT-15 colon.
Experiment [3] has as its system HOP-92 NSCLC.
Experiment [4] concerns KM12 colon.
For experiment [5], the system named is MOLT-4 leukemia.
In experiment [6] the test system is SF-539 CNS.
In experiment [7] the test system is MDA-MB-435.
For experiment [8], the system named is HT29 colon.
For experiment [9], the system named is HCC-2998 colon.
Experiment [10] concerns M14 melanoma.
Experiment [11] deals with OVCAR-5 ovarian.
For experiment [12], the system named is RPMI-8226 leukemia.
Experiment [13] deals with A498 renal.
The subject of experiment [14] is K-562 leukemia.
The test system of experiment [15] is SF-295 CNS.
The test system of experiment [16] is IGROV1 ovarian.
Experiment [17] relates to NCI-H522 lung.

`OCCN(CCO)c1ccc2c(c1)Cc1ccccc1-2`: the TGI in [1] was 55 µM; in [2], greater than 100 µM; in [3] it was 73.1 µM; in experiment [4], greater than 100 µM; in experiment [5], greater than 100 µM; in experiment [6], greater than 100 µM. Also, the TGI in [7] is greater than 100 µM; in [8], 37.8 µM; in experiment [9], greater than 100 µM; in experiment [10], greater than 100 µM; in experiment [11], greater than 100 µM; in [12], greater than 100 µM. The figures for the TGI in experiment [13], in [14] and in experiment [15] were 80.5 µM, greater than 100 µM and greater than 100 µM, respectively.
For the compound `CCCCCCCC(=O)NC(C)(C)C(=O)NC(COC(C)(C)C)C(=O)NC(CC(C)C)C(=O)NC(C)(C)C(=O)NC(COC(C)(C)C)C(=O)NC(COC(C)(C)C)C(=O)NC(CC(C)C)C(=O)NC(C)(C)C(=O)NC(COC(C)(C)C)C(=O)NC(C(=O)NC(CC(C)C)C(=O)OC)C(C)CC` (stereo unspecified) (Octanoyl-[Aib]S(tBu)L[Aib]S(tBu)S(tBu)L[Aib]S(tBu)IL-OMe; configuration not given here), the TGI is 21.8 µM in [1]; greater than 25 µM in experiment [2]; 10.6 µM in experiment [3]; 22 µM in experiment [4]; 12.5 µM in experiment [16]; greater than 25 µM in [5]. Besides, the TGI in [6] was greater than 25 µM; in experiment [7], greater than 25 µM; in experiment [8], 11.9 µM; in [10], greater than 25 µM; in experiment [11], 22.3 µM; in [12], 11.2 µM. The TGI in experiment [13] is 14 µM; in experiment [14], greater than 25 µM; in experiment [17] it was greater than 25 µM; in experiment [15], greater than 25 µM.
In the case of `CCC(C)C(CC(=O)N1CCCC1C(=O)NC(C(=O)NC(C(=O)NCC(=O)NC(CC(N)=O)C(=O)NC(C(=O)NC(C(=O)NC(CCCCN)C(N)=O)C(C)CC)C(C)CC)C(C)C)C(C)CC)NC(=O)C(N)C(C)CC` (stereo not drawn) (H-I[β3hI]PIVGNIIK-NH2; configuration not given here), the TGI in [1], in [2], in experiment [3], in experiment [4], in experiment [16] and in [5] was greater than 50 µM each time. Moreover, the TGI in experiment [6], in experiment [7], in [8], in experiment [10], in experiment [11] and in experiment [12] was greater than 50 µM in each case. Moreover, the TGI in [13], in [17] and in [15] was greater than 50 µM in each case.
In the case of `O=C(OCC1OC(c2nn[nH]n2)C(OC(=O)c2ccccc2)C1OC(=O)c1ccccc1)c1ccccc1` (stereo unspecified), the TGI in experiment [1], in experiment [2], in [3], in [4], in experiment [5] and in [6] was greater than 100 µM in each case. The TGI in experiment [7], in experiment [8], in [9], in [11], in [12] and in experiment [13] was greater than 100 µM in each case. For the same compound, the TGI in [14] and in experiment [15] was greater than 100 µM each time.
On to `COC(=O)CCn1cnc2c(SC)ncnc21`, for which the TGI in experiment [1], in [3], in experiment [4], in experiment [16], in experiment [5] and in experiment [6] was greater than 100 µM in each case. Also, the TGI in experiment [7], in [8], in experiment [10], in [11], in experiment [12] and in [13] was greater than 100 µM throughout. The TGI in [14], in experiment [17] and in experiment [15] was greater than 100 µM each time.
Consider `O=c1[nH]nc(Cc2ccc(Cl)cc2)n1/N=C\c1ccc(/C=N/n2c(Cc3ccc(Cl)cc3)n[nH]c2=O)cc1`, for which the TGI in experiment [1], in experiment [2], in experiment [3], in [4], in experiment [16] and in experiment [5] was greater than 100 µM each time. In addition, the TGI in [7], in experiment [8], in experiment [10], in [11], in [12] and in [13] was greater than 100 µM throughout. Besides, the TGI in experiment [14], in experiment [17] and in experiment [15] was greater than 100 µM throughout.
In the case of `Cn1c(-c2ccc(/C=N\N3CCN(/N=C/c4ccc(-c5c[n+]6ccsc6n5C)cc4)CC3)cc2)c[n+]2ccsc12`, the TGI in experiment [1], in experiment [2], in experiment [3], in [4], in experiment [16] and in experiment [5] was greater than 100 µM throughout. Further, the TGI in experiment [6] was greater than 100 µM; in experiment [7], greater than 100 µM; in [8] it was greater than 100 µM; in experiment [10], greater than 100 µM; in experiment [11] it was greater than 100 µM; in experiment [12], 89.4 µM. Further, the TGI in experiment [13] was 82.3 µM; in experiment [14], 34.7 µM; in [17], greater than 100 µM; in [15], greater than 100 µM.
As for `CC(=O)OCC1OC(n2c(N)c(C#N)c(-c3ccc(C)cc3)c(C#N)c2=S)C(OC(C)=O)C(OC(C)=O)C1OC(C)=O` (stereo unspecified), the TGI in experiment [1] is 37.9 µM; in experiment [2], greater than 100 µM; in experiment [3], 28.5 µM; in [4] it was greater than 100 µM; in [16], 45.4 µM; in experiment [6], 19.2 µM. The TGI was 79.3 µM in [7]; 39.1 µM in [8]; 34 µM in [9]; 30 µM in experiment [10]; greater than 100 µM in experiment [11]; 80 µM in experiment [12]. For the same compound, the TGI in experiment [13] was greater than 100 µM; in [14], greater than 100 µM; in [15] it was 73.8 µM.
With `CCOC(=O)CCC(NC(=O)c1ccc(Nc2nc3ccccc3nc2-c2cccs2)cc1)C(=O)OCC` (stereo unspecified), the TGI in experiment [1], in experiment [2], in experiment [3], in experiment [4], in experiment [16] and in [5] was greater than 100 µM in each case. Further, the TGI in experiment [6], in [7], in [8], in experiment [9], in experiment [10] and in [11] was greater than 100 µM each time. The TGI in experiment [12], in experiment [13], in [14] and in experiment [15] was greater than 100 µM in each case.
As for `Cc1cccc(-c2cc(=S)c3cc(N4CCCC4)ccc3[nH]2)c1`, the TGI in experiment [1], in experiment [2], in experiment [3], in experiment [4], in experiment [5] and in experiment [6] was greater than 100 µM each time. The TGI in [7], in experiment [9], in [10], in [11], in experiment [12] and in experiment [13] was greater than 100 µM each time. The TGI in experiment [14] and in [15] was greater than 100 µM throughout.
For `N#CCCN(CCC#N)c1ccc(/C=C2\N=C(c3ccccc3)N(c3ccccn3)C2=O)cc1`, the TGI in experiment [1], in experiment [2], in [3], in [4], in experiment [16] and in [5] was greater than 100 µM each time. Besides, the TGI in experiment [6], in experiment [7], in experiment [8], in experiment [10], in experiment [11] and in [12] was greater than 100 µM throughout. For the same compound, the TGI in experiment [13], in experiment [14] and in experiment [15] was greater than 100 µM throughout.
Take `O=C(O)c1ccc(C(c2c(O)c3ccccc3oc2=O)c2c(O)c3ccccc3oc2=O)cc1`: the TGI is greater than 100 µM in experiment [2]; 6.04 µM in experiment [3]; greater than 100 µM in experiment [4]; greater than 100 µM in [5]; greater than 100 µM in experiment [6]; greater than 100 µM in experiment [7]. Further, the TGI in experiment [8], in [9], in experiment [10], in experiment [11], in experiment [12] and in experiment [13] was greater than 100 µM each time. Further, the TGI in experiment [14] and in experiment [15] was greater than 100 µM throughout.
Turning to `CC(NC(=O)OC(C)(C)C)C(=O)C(N)=O` (stereo unspecified), the TGI in [1], in experiment [2], in [3], in experiment [5], in experiment [6] and in experiment [7] was greater than 100 µM throughout. The TGI in experiment [9], in [10], in experiment [11], in experiment [12], in experiment [13] and in experiment [14] was greater than 100 µM in each case.
As for `COc1ccc2oc(C(=O)N3CC(CCl)c4ccc([N+](=O)[O-])cc43)cc2c1` (stereo unspecified), the TGI was greater than 100 µM in [1]; greater than 100 µM in experiment [3]; greater than 100 µM in experiment [4]; 29.5 µM in [16]; greater than 100 µM in experiment [6]; greater than 100 µM in experiment [7]. The TGI in [9] was greater than 100 µM; in experiment [10], greater than 100 µM; in experiment [12] it was greater than 100 µM; in experiment [13], 58.5 µM; in experiment [14], greater than 100 µM; in experiment [15] it was 69.6 µM.
Turning to `CC1CCC2C(C(=O)O[C@H]3C4CCO[C@@H](OC5OC(CO)C(O)C(O)C5O)C4[C@@]4(CO)O[C@@H]34)=CO[C@@H](OC3OC(CO)C(O)C(O)C3O)C12` (stereo partly specified), the TGI in experiment [1], in experiment [2], in experiment [3], in experiment [4], in experiment [16] and in experiment [5] was greater than 10 µM in each case. In addition, the TGI in experiment [6], in [7], in [8], in experiment [9], in experiment [10] and in [11] was greater than 10 µM throughout. Besides, the TGI in experiment [12], in [13], in [14] and in [15] was greater than 10 µM each time.
Turning to `O=C(NCCO)Nc1c(C(F)(F)F)cc(-c2ccccc2)[nH]c1=O`, the TGI in [1], in experiment [2], in [3], in [4], in [16] and in experiment [5] was greater than 100 µM each time. The TGI in experiment [7], in [8], in [9], in experiment [10], in [11] and in [12] was greater than 100 µM each time. The TGI in experiment [13], in experiment [14] and in experiment [15] was greater than 100 µM in each case.
As for `COc1cc([N+](=O)[O-])ccc1NC1=CC(=O)CCC1`, the TGI in [1], in experiment [2], in experiment [3], in experiment [4], in experiment [16] and in experiment [5] was greater than 100 µM each time. The TGI in [6], in experiment [7], in experiment [8], in experiment [9], in experiment [10] and in experiment [11] was greater than 100 µM each time. Moreover, the TGI in [12], in experiment [13], in experiment [14] and in experiment [15] was greater than 100 µM in each case.
